Results on 9 molecules are retold here after patent publication US8785431B2, “Prodrugs of (1S,9S)-9-[[(1S)-1-carboxy-3-phenylpropyl]amino]octahydro-10-oxo-6H-pyridazino[1,2-a][1,2]diazepine-1-carboxylic acid and their use in transdermal therapeutic systems” (Hexal AG, priority 2011, dated 2014).

Data set [1] in a line: Rate of hydrolysis in porcine skin homogenate at 37° C. (HPLC or HPLC-MS). Type of data set: in vitro ADME. Particulars: for half-life: pig; for reaction kinetics in porcine skin homogenate: in words. As for the experimental part: (§1) To assess whether the synthesised cilazapril prodrugs undergo enzymatic cleavage, metabolic studies were carried out in three well established incubation media for the investigation of transdermal administration.
Due to its similarities with human skin, in terms of enzyme activity and distribution, a porcine skin homogenate (25% w/w in PBS-buffer, 0.65 U/ml, 1.3 mg/ml (Bradford)) was used for the metabolic studies.
(§2) Incubation mixtures were prepared by adding a respective prodrug stock solution to porcine skin homogenate (PSH), human plasma and buffered porcine liver esterase (PLE), respectively.
(§3) All samples were incubated in a water bath at 37° C. After 72 h samples of the incubation mixtures (200 μl) were collected. To all samples 400 μl of ice-cold acetonitrile were added. After vortex mixing the samples were allowed to stand in a refrigerator for approx. 30 min. The samples were then centrifuged at 13000 rpm (13000 g) for 5 min. The supernatants were collected and stored at −78° C. until HPLC analysis. To 200 μl of each supernatant 400 μl of aqueous 0.05% trifluoroacetic acid were added prior to injection.
(§4) The kinetics of the hydrolysis of the cilazapril prodrugs in the different incubation media was analysed by HPLC or HPLC-MS.
(§5) The rate of hydrolysis of cilazapril, of some cilazapril prodrugs and cilazapril ethyl ester in porcine skin homogenate, human plasma and buffered porcine liver esterase at 37° C. are presented in Table 4.

A further data set can be described thus: in vitro. It counts as in vitro ADME. The method, then:
as §1
Human plasma (CPD plasma, 3.82 U/ml), which contains i.a. cholinesterase and acetylcholinesterase, was used as the second incubation media.
as §2, §3, §4, §5

Another data set concerns porcine liver esterase. Kind of data set: Rate of hydrolysis in buffered porcine liver esterase at 37° C. (HPLC or HPLC-MS). Particulars: for half-life: pig. It counts as in vitro ADME. The method, then: as §1
(§6) Buffered porcine liver esterase (suspension in 3.2 M (NH4)2SO4 solution, pH 8, 12 mg prot./ml (Biuret), 260 U/mg prot.) was chosen as the third incubation media, because porcine liver esterase mimics the carboxylesterase present in the human skin.
as §2, §3, §4, §5

A short description of data set [2]: Metabolic studies in enzyme-containing incubation mixtures (porcine skin homogenate, human plasma, buffered porcine liver esterase), results in words. The note with it: 37° C.; for enzymatic cleavage / hydrolysis to cilazaprilate: incubation mixtures; for degradation / reaction kinetics of enzymatic hydrolysis: enzyme-containing incubation mixtures. It counts as in vitro ADME. The method, then:
as §1, §6, §2
All samples were incubated in a water bath at 37° C. […] To all samples 400 μl of ice-cold acetonitrile were added. After vortex mixing the samples were allowed to stand in a refrigerator for approx. 30 min. The samples were then centrifuged at 13000 rpm (13000 g) for 5 min. The supernatants were collected and stored at −78° C. until HPLC analysis. To 200 μl of each supernatant 400 μl of aqueous 0.05% trifluoroacetic acid were added prior to injection.
as §4

The nature of data set [3]: Stability of 10% cilazapril in an acrylic adhesive (Durotak 87-4098, Henkel). Type of data set: physicochemical. Particulars: 10% in acrylic adhesive Durotak 87-4098. The source says: Instability in a semisolid dosage form is also a problem with cilazapril. Although cilazapril has a more rigid structure than other ACE-inhibitors and has no distinct tendency to intramolecular cyclisation, it presents stability problems in adhesive layers of transdermal therapeutic systems as shown in Table 1.

Data set [4] in a line: Stability in transdermal therapeutic system (10% in BioPSA Hex 7-4302), extraction and HPLC. It counts as physicochemical. The note with it: TTS. The method, then: The stability of the prodrugs in the transdermal therapeutic system was determined after different storage times and temperatures by extraction of the transdermal therapeutic system with an organic solvent and subsequent analysis by HPLC.
The stability of the cilazapril prodrugs (1) and (2) in therapeutic transdermal systems was controlled at 25° C./60% relative humidity and compared with the cilazapril in a TTS having the same adhesive layer.

The nature of data set [5]: Crystallization in the TTS. Type of data set: physicochemical. Particulars: after 14 months. The source says: Moreover, the TTSs with the prodrugs (1), (2) and (6) were examined with regard to crystallization.
The nature of data set [6]: In vitro skin permeation from TTS through human skin (two-compartment diffusion cell). Type of data set: in vitro ADME. Particulars: TTS on human skin, 32±1° C., 96 hours, FIG. 1. The method, then: Furthermore the permeability of the prodrugs through the skin was measured by in vitro skin permeation. The in vitro skin permeation of the prodrugs (1), (2) and (6) and of cilazapril through human skin was evaluated using the TTS as prepared in any one of examples 8, 9, and 11.
The flux was determined by using a two-compartment diffusion cell with a section of human skin mounted between the cell halves. A TTS was adhered to one side of the skin and a drug-receiving medium was placed on the receptor-side of the cell. The apparatus was placed in a water bath maintained at 32±1° C. Samples of the receptor medium were collected over a period of 96 hours for HPLC analysis of drug concentration.

Where [7] appears, read: porcine skin homogenate, 37° C.
[8] abbreviates: 9 months, 25° C./60% relative humidity.

In the case of `CCOC(=O)[C@H](CCc1ccccc1)N[C@H]1CCCN2CCC[C@@H](C(=O)OCC)N2C1=O` [cilazapril ethyl ester, reference compound], the “t1/2” value in data set [1] (setting [7]) is on record as 0.35 h; in the data set “in vitro” (human plasma, 37° C.) it was 11.9 h; in the data set with porcine liver esterase, 0.69 h. Besides, the “enzymatic cleavage / hydrolysis to cilazaprilate” value (from here on “enzymatic cleavage / hydrolysis”) is reported as “no hydrolysis to cilazaprilate was detectable” in data set [2] and “stable against enzymatic cleavage” in data set [2] (listed as ethyl ester of cilazapril).

With `CCOC(=O)[C@H](CCc1ccccc1)N[C@H]1CCCN2CCC[C@@H](C(=O)O)N2C1=O` [cilazapril, (1S,9S)-9-[[(1S)-1-ethoxycarbonyl-3-phenylpropyl]amino]octahydro-10-oxo-6H-pyridazino[1,2-a][1,2]diazepine-1-carboxylic acid, reference compound], the “assay [%]” value is recorded as 98.1% in data set [3] (0 months, uncontrolled); 98.0% in data set [3] (3 weeks, 25° C./60% relative humidity); 95.9% in data set [3] (3 weeks, 40° C./75% relative humidity); 91.9% in data set [3] (7 months, 25° C./60% relative humidity); 80.4% in data set [3] (7 months, 40° C./75% relative humidity); 99.8% in data set [4] (0 months, uncontrolled). Further, in data set [4] (setting [8]), the “assay [%]” value turned out to be 97.0%. Also, the half-life in data set [1] (setting [7]) was 9.4 h; in “in vitro” (human plasma, 37° C., read-out: t1/2 (converted)), 88.8 h; in the data set on porcine liver esterase, 3.3 h.

Consider `CCOC(=O)OC(C)OC(=O)[C@@H]1CCCN2CCCC(N[C@@H](CCc3ccccc3)C(=O)OCC)C(=O)N12` (stereo partly drawn) [compound 1, (1S,9S)-1-(ethoxycarbonyloxy)ethyl 9-[[(1S)-1-ethoxycarbonyl-3-phenylpropyl]amino]-10-oxooctahydro-1H-pyridazino[1,2-a][1,2]diazepine-1-carboxylate], for which the “reaction kinetics in porcine skin homogenate” value in data set [1] is given as “fast reaction kinetics”. The half-life is 0.43 h in data set [1] (setting [7]); 0.58 h in “in vitro” (human, plasma); 0.67 h in the data set on porcine liver esterase. Further, in the data set “in vitro” (human), the “f50% (h), time by which 50% of total cilazaprilate has been formed” value (“f50% (h), time” below) came to 154 h. Moreover, the “degradation / reaction kinetics of enzymatic hydrolysis” value (from here on “degradation / reaction kinetics”) in data set [2] is listed as “fast degradation”. In addition, in data set [2], the “enzymatic cleavage / hydrolysis” value is given as “formation of cilazaprilate as the final metabolite”. Further, the “assay [%]” value in data set [4] (0 months, uncontrolled) was 99.3%; in data set [4] (setting [8]) it was 98.0%. Moreover, the “crystallization in the TTS” value in data set [5] is given as “none of the TTS showed crystallization”. For the same molecule, the “in vitro skin flux compared to the cilazapril TTS” value in data set [6] is recorded as “increase in in vitro skin flux”.

As for `CCOC(=O)[C@H](CCc1ccccc1)NC1CCCN2CCC[C@@H](C(=O)OC(C)OC(=O)OC3CCCCC3)N2C1=O` (stereo partly drawn) [compound 2, (1S,9S)-1-(cyclohexyloxycarbonyloxy)ethyl 9-[[(1S)-1-ethoxycarbonyl-3-phenylpropyl]amino]-10-oxooctahydro-1H-pyridazino[1,2-a][1,2]diazepine-1-carboxylate], the “reaction kinetics in porcine skin homogenate” value in data set [1] was “fast reaction kinetics”. Also, the half-life in data set [1] (setting [7]) was 1.4 h; in “in vitro” (human, plasma), 3.2 h; with porcine liver esterase, 4.2 h. Moreover, the “f50% (h), time” value in the data set “in vitro” (human) came to 228 h. Further, the “degradation / reaction kinetics” value in data set [2] was “fast degradation”. Moreover, in data set [2], the “enzymatic cleavage / hydrolysis” value is reported as “formation of cilazaprilate as the final metabolite”. Also, the “assay [%]” value in data set [4] (0 months, uncontrolled) is on record as 100.0%; in data set [4] (setting [8]) it was 98.3%. Besides, the “crystallization in the TTS” value in data set [5] is recorded as “none of the TTS showed crystallization”. Besides, the “in vitro skin flux compared to the cilazapril TTS” value in data set [6] is recorded as “increase in in vitro skin flux”.

Turning to `CCOC(=O)[C@H](CCc1ccccc1)NC1CCCN2CCC[C@@H](C(=O)OC(C)OC(=O)OC(C)C)N2C1=O` (stereo partly drawn) [compound 3, (1S,9S)-1-(isopropyloxycarbonyloxy)ethyl 9-[[(1S)-1-ethoxycarbonyl-3-phenylpropyl]amino]-10-oxooctahydro-1H-pyridazino[1,2-a][1,2]diazepine-1-carboxylate], the half-life was 1 h in data set [1] (setting [7]); 1.9 h in “in vitro” (human, plasma); 1.5 h in the data set with porcine liver esterase. Moreover, in the data set “in vitro” (human), the “f50% (h), time” value was 108 h. In addition, in data set [2], the “degradation / reaction kinetics” value is given as “fast degradation”. Moreover, the “enzymatic cleavage / hydrolysis” value in data set [2] is given as “formation of cilazaprilate as the final metabolite”.

As for `CCOC(=O)[C@H](CCc1ccccc1)NC1CCCN2CCC[C@@H](C(=O)OC(C)OC(C)=O)N2C1=O` (stereo partly drawn) [compound 4, (1S,9S)-1-(acetoxy)ethyl 9-[[(1S)-1-ethoxycarbonyl-3-phenylpropyl]amino]-10-oxooctahydro-1H-pyridazino[1,2-a][1,2]diazepine-1-carboxylate], the half-life in data set [1] (setting [7]) was 0.5 h; in “in vitro” (human, plasma) it was 0.68 h; with porcine liver esterase, 0.63 h. For the same molecule, the “f50% (h), time” value in “in vitro” (human) came out at 91.2 h. Further, the “degradation / reaction kinetics” value in data set [2] is “fast degradation”. In addition, the “enzymatic cleavage / hydrolysis” value in data set [2] is recorded as “formation of cilazaprilate as the final metabolite”.

With `CCOC(=O)[C@H](CCc1ccccc1)NC1CCCN2CCC[C@@H](C(=O)OC(C)OC(=O)C(C)(C)C)N2C1=O` (stereo partly drawn) [compound 5, (1S,9S)-1-(2,2-dimethylpropanoyloxy)ethyl 9-[[(1S)-1-ethoxycarbonyl-3-phenylpropyl]amino]-10-oxooctahydro-1H-pyridazino[1,2-a][1,2]diazepine-1-carboxylate], the half-life was 1 h in data set [1] (setting [7]); 5.1 h in the data set “in vitro” (human, plasma); 3.8 h with porcine liver esterase. Also, the “f50% (h), time” value in the data set “in vitro” (human) stood at 33.6 h. The “degradation / reaction kinetics” value in data set [2] is “fast degradation”. In data set [2], the “enzymatic cleavage / hydrolysis” value is “formation of cilazaprilate as the final metabolite”.

Turning to `CCOC(=O)[C@H](CCc1ccccc1)N[C@H]1CCCN2CCC[C@@H](C(=O)OCCN3CCOCC3)N2C1=O` [compound 6, (1S,9S)-2-morpholinoethyl 9-[[(1S)-1-ethoxycarbonyl-3-phenylpropyl]amino]-10-oxooctahydro-1H-pyridazino[1,2-a][1,2]diazepine-1-carboxylate], the “reaction kinetics in porcine skin homogenate” value in data set [1] is on record as “fast reaction kinetics”. In addition, the half-life was 0.5 h in data set [1] (setting [7]); 1.3 h in “in vitro” (human, plasma); 0.95 h in the data set with porcine liver esterase. Further, the “f50% (h), time” value in the data set “in vitro” (human) amounted to 10.8 h. In addition, the “degradation / reaction kinetics” value in data set [2] is on record as “fast reaction kinetics”. For the same molecule, the “assay [%]” value in data set [4] (0 months, uncontrolled) was determined as 98.1%; in data set [4] (setting [8]) it was 94.7%. In data set [5], the “crystallization in the TTS” value is “none of the TTS showed crystallization”. Further, the “in vitro skin flux compared to the cilazapril TTS” value in data set [6] was “increase in in vitro skin flux”.

For the molecule `CCOC(=O)[C@H](CCc1ccccc1)NC1CCCN2CCC[C@@H](C(=O)OC(C)OC(=O)CN3CCOCC3)N2C1=O` (stereo partly drawn) [compound 7, (1S,9S)-1-(2-morpholinoacetoxy)ethyl 9-[[(1S)-1-ethoxycarbonyl-3-phenylpropyl]amino]-10-oxooctahydro-1H-pyridazino[1,2-a][1,2]diazepine-1-carboxylate], the half-life was 0.33 h in data set [1] (setting [7]); 0.83 h in the data set “in vitro” (human, plasma); 0.77 h in the data set on porcine liver esterase. Besides, in “in vitro” (human), the “f50% (h), time” value is 132 h. In data set [2], the “degradation / reaction kinetics” value is listed as “fast reaction kinetics”.
